{
  "source": "patent US20080234243A1",
  "about": "“METHOD OF TREATING AMYLOIDOSIS MEDIATED DISEASES” (priority 2007, published 2008)",
  "tested_on": "soluble Aβ (1-40) peptide",
  "assay": "In vivo effect on soluble Aβ (1-40) in whole brain homogenates of CB.17 SCID mice (ELISA)",
  "settings": "CB17 SCID mice, oral, 300 mg/kg/day for 20 days, brain extracts; P=0.012 vs. control",
  "experimental": "FIG. 1 provides a graph showing a decrease in soluble AD levels in CB17 SCID mice treated with 2ME2. Mice (5 animals per group) were treated orally for 5 or 20 days with 300 mg/kg/day 2ME2, and soluble Aβ levels were measure in whole brain homogenates. (*P=0.012 vs. control)\nCB. 17 SCID mice were treated orally for 5 or 20 days with 300 mg/kg/day 2ME2. At the end of treatment mice were humanely euthanized, and mouse brain was recovered surgically. This tissue was immediately frozen on dry ice until processing for ELISA analysis of soluble Aβ peptide. Serum is also routinely collected for later analysis as well.\nPreparation of the Brain Extract Solution\n1. Homogenize brains into 15 vol of ice cold TBS, pH 7.4 containing leupeptide (10 ug/ml) and aprotinin (20 ug/ml).\n2. Transfer to microcentrifuge tubes and spin 20,000 g for 20 min at 4° C.\n3. Remove supernatant (TBS Extract) to ice.\n4. Wash once with cold TBS and resuspend in 15 vol of TBS/1% Triton X-100 and protease inhibitors. Incubate 30 min at 4° C. with agitation.\n5. Transfer to microcentrifuge tubes and spin 20,000 g for 20 min at 4° C.\n6. Remove supernatant (Triton Extract) to ice. […]\nHarvested brains were homogenized with a tissue homogenizer, and subjected to serial extraction with TBS followed by TBS/Triton X-100. […] Brains were harvested, and soluble Aβ was assessed. […]",
  "data": [
    {"smiles": "COc1cc2c(cc1O)CC[C@@H]1[C@@H]2CC[C@]2(C)[C@@H](O)CC[C@@H]12", "note": "[2ME2, 2-methoxyestradiol]", "values": [
      {"measurement": "decrease in the levels of soluble Aβ (inhibition)", "result": 46, "unit": "%"}
    ]}
  ]
}
